The text below walks through data of patent US12656349B2, “Measurement of bevacizumab-insensitive vascular endothelial growth factor-a” (Board of Regents, The University of Texas System, priority 2019, dated 2026).

The target in one test is T1, sEV-VEGF (Homo sapiens, UniProt P15692).
T1 construct: Parental ES2, SKOV3, HCT116 and 786-0 cell lines were purchased from ATCC; endogenous in cells; host or cells: sEVs of parental (VEGF+/+) ES2 and HCT116 cells
T1 sequence (P15692 27-215 isoform P15692-2): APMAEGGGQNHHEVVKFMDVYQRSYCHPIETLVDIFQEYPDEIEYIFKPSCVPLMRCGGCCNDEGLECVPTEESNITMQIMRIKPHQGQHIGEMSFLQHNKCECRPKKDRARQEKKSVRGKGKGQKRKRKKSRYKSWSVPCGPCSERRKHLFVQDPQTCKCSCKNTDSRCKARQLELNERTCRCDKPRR
The test is described as follows: Flow cytometric analysis of binding of coupled microbeads to VEGF on the surface of sEVs. To be noted: exo-FITC fluorescence. In general terms: Flow cytometry measures light scatter and fluorescence of single cells or particles in a stream.

In the next test the test system is ES2 VEGF^−/− cells. Nature of the test: Nude mice with i.p. ES2 VEGF−/− xenografts administered sEVs or recombinant VEGF. The class given is in vivo. The note with it: vs control Ig. The method, then: (§1) Animal studies were conducted in compliance with protocols approved by the UTMDACC Institutional Animal Care and Use Committee. Four-week-old female nude mice (purchased from UTMDACC animal facility) were used to propagate xenografts. To evaluate VEGF levels in ascites, mice were inoculated i.p, with 1×10^6 ES2 VEGF^+/+ cells, and euthanized by CO2 asphyxiation upon formation of morbid ascites (median survival time of 3 weeks), To evaluate the effects of sEVs, mice were inoculated i.p. with 2×10^6 GFP-expressing ES2 VEGF^−/− cells. […] Mice were treated with these agents i.p. 3 times a week for 2 weeks and thereafter euthanized. […] The 6 doses of sEVs at 500 μg per dose was based on the average volume of ascites and concentration of tumor-derived sEV-VEGF in ascites that forms in mice with i.p. xenografts derived from ES2 VEGF^+/+ cells (FIGS. 15A, 15B). Following euthanasia, volumes of ascites were measured. GFP-expressing tumors were visualized under a Leica MZMLIII stereomicroscope equipped with a GFP filter set and digital camera. Images were captured by using Picture Frame software (Optronics). Tumor burden was quantified by measuring areas of fluorescence signals within the abdominal cavity in captured images by using Image Pro Plus software (Media Cybernetics) as performed previously (Ko et al., 2009). To visualize intratumoral blood vessels, sections of omental tumor tissues, frozen in Optimal Cutting Temperature compound (Thermo Fisher Scientific), were stained with Ab to GFP (1:500 dilution) and CD31 (1:50 dilution) and with DAPI, and viewed under a Nikon 80i fluorescence microscope. Numbers of intratumoral CD31^+ cells were counted in 5 random 100× fields per section and an average score was determined for each mouse. To evaluate circulating VEGF levels, mice were inoculated s.c. with 5×10^6 ES2 VEGF^+/+ cells or HCT116 VEGF^+/+ cells. At 7 days thereafter when tumors were palpable, blood samples were collected retro-orbitally. […] Volumes of s.c. tumors were calculated from 2 perpendicular measurements of tumor diameters taken using calipers. Pre- and post-treatment plasma samples were pre-cleared with Protein G Sepharose 4 Fast Flow (GE Healthcare) at 4° C. for 16 h to remove Ab-bound VEGF and thereafter were assayed for VEGF by ELISA.

The subject of test [1] is VEGF in cancer cell-conditioned media. Nature of the test: Quantification of unbound bevacizumab in whole and sEV-depleted cancer cell-conditioned media (ELISA). The format is binding, human. The protocol:
Samples of plasma and ascites (diluted 1:10 in PBS) and conditioned media were centrifuged at 2,400×g at 4° C. for 10 min to remove intact cells and cell debris. Thereafter, supernatants were filtered through a 0.2 μm pore size filter to remove larger particles. A 300 μL aliquot of filtrate was retained for analysis of VEGF. The remainder of the filtrate was centrifuged at 100,000×g at 4° C. for 18 h to remove sEVs. Thereafter, the supernatant (comprising of sEV-depleted sample) was assayed for VEGF.
Wells of 96-well High Bind microplates were coated with recombinant VEGF (100 ng) at RT for 16 h, After washing three times with wash buffer (R&D Systems), wells were blocked with 10% goat serum for 1 h and washed again. […] Absorbance was read at 450 nm.
In general terms: An ELISA detects its analyte on a solid surface through an enzyme-linked reagent.

In the next test the test system is parental ES2 cells. Nature of the test: Nude mice with s.c. tumors from parental ES2 cells, tumor volume and plasma human VEGF. The class given is in vivo. The method, then: as §1, with “Pre- and post-treatment plasma samples were pre-cleared with Protein G Sepharose 4 Fast Flow (GE Healthcare) at 4° C. for 16 h to remove Ab-bound VEGF and thereafter were assayed for VEGF by ELISA.” left out

A further test concerns HUVEC. Nature of the test: Tube formation assay in HUVEC. The class given is cell-based, human. The method, then:
(§2) Uptake of sEVs was blocked by treating HUVEC with chlorpromazine (15 μM) or dynasore (50 μM) for 30 min prior to addition of sEVs. As a negative control, HUVEC were pretreated with DMSO solvent (0.1%). VEGFR signaling was blocked by treating HUVEC with axitinib (1 nM) or vandetanib (1 μM) for 2 h or with neutralizing Ab to VEGFR2 (250 ng/mL) for 1 h prior to addition of sEVs or recombinant VEGF. […] Thereafter, mixtures were added to HUVEC cultures. To detect intracellular VEGF, cancer cells where indicated were incubated at 37° C. for 6 h with brefeldin A (BioLegend) (5 μg/mL) to block protein secretion and then harvested.
Wells of 96-well plates were coated with growth factor-reduced Matrigel (BD Biosciences) (50 μL/well) and incubated at 37° C. for 30 min. HUVEC (10^4 cells/well) were then seeded in FBS-free Medium 199 without or with addition of sEVs (100 μg/mL) or recombinant VEGF (1 ng/mL), or seeded in whole or sEV-depleted conditioned media. Following incubation at 37° C. for 4 h, capillary tube structures were visualized under a Nikon TS100 light microscope attached to a digital camera. In each experiment, images of 2 to 3 random 100× fields of each well were captured by using NIS Element BR 4 software (Nikon). The number of tubes in each field was quantified by using NIH Image) software with Angiogenesis Analyzer plugin, and an average calculated for each well. […]

A further test deals with VEGFR2. The test is described as follows: VEGFR2 phosphorylation in HUVEC (immunoblot). The format is cell-based, human. The protocol:
as §2
Extracts were prepared by lysing whole cells and sEVs in M-PER buffer (Thermo Fisher Scientific). Protein concentrations of lysates were determined by Bradford assay (BioRad). Lysates were separated by SDS-polyacrylamide gel electrophoresis under non-reducing conditions to detect VEGF and under reducing conditions to detect other proteins, and then transferred to polyvinylidene difluoride membrane (GE Healthcare). Membranes were blocked with 5% non-fat milk in Tris-buffered saline with 0.1% Tween-20 (TBS-T), incubated with primary Ab at 4° C. for 16 h, and then washed with TBS-T buffer. Primary Ab were used at the following dilutions: 1:1000 (for Ab to TSG101, α-actinin-4, HSP90B1, calnexin, phospho-VEGFR2, VEGFR2, VEGF); 1:2000 (for Ab to HSP70); 1:5000 (for Ab to actin). Thereafter, membranes were incubated with 1-IRP-conjugated secondary Ab (1:5000 dilution), washed and visualized with ECL detection reagent (Millipore). Immunoblot data was verified in 3 independent experiments.

For the next test, the system named is parental HCT116 cells. The test is described as follows: Nude mice with s.c. tumors from parental HCT116 cells, tumor volume and plasma human VEGF. The class given is in vivo. The method, then: as §1, with “Pre- and post-treatment plasma samples were pre-cleared with Protein G Sepharose 4 Fast Flow (GE Healthcare) at 4° C. for 16 h to remove Ab-bound VEGF and thereafter were assayed for VEGF by ELISA.” left out

The mark [2] stands for this setting: endothelial cells stimulated with VEGF+/+ sEVs.
The mark [3] stands for this setting: endothelial cells stimulated with recombinant VEGF.

Protocol for sEV-VEGF: To detect sEV-associated proteins by using Ab-coupled microbeads, acquisition and analysis of flow cytometry data were performed using a FACSCalibur™ cytometer equipped with CellQuest™ Pro software (BD Biosciences). […] Thereafter, microbeads were incubated with sEVs (100 μg, approximately 2×10^8 vesicles) at 4° C. for 16 h with rotation, washed with 1% BSA in PBS, stained with exo-FITC dye, and then acquired. Binding of Ab to protein on the surface of sEVs was evaluated by analyzing exo-FITC fluorescence in the gated population of singlet microbeads. A minimum of 10,000 gated events was analyzed for each sample. […] Following washing, microbeads were acquired and PerCP fluorescence analyzed in the gated population of singlet microbeads. […] Three independent experiments were performed for each assay. Contour plots were generated by using CellQuest™ Pro software.

“VEGFR1/R2-Fc: chimera of the ligand-binding domains of VEGFR1 and VEGFR2 fused to the Fc portion of human IgG1”: the “Binding to VEGF+/+ sEVs” value with sEV-VEGF (coupled microbeads incubated with VEGF+/+ sEVs) is on record as “bound”. Besides, the “Binding to VEGF−/− sEVs” value with sEV-VEGF (coupled microbeads incubated with VEGF−/− sEVs (negative control)) is on record as “not”.

As for “bevacizumab: humanized monoclonal antibody to human vascular endothelial growth factor (VEGF)”, the Angiogenesis result with ES2 VEGF^−/− cells (mice administered VEGF+/+ sEVs) is on record as “not”; in the test on ES2 VEGF^−/− cells (mice administered recombinant VEGF189, P<0.0001) it was “inhibited”. Also, the Ascites entry in the test with ES2 VEGF^−/− cells (mice administered VEGF+/+ sEVs) is “not”; in the test with ES2 VEGF^−/− cells (mice administered recombinant VEGF189, P<0.001), “inhibited”. The Tumor growth result is “not” in the test on ES2 VEGF^−/− cells (mice administered VEGF+/+ sEVs); “inhibited” in the test on ES2 VEGF^−/− cells (mice administered recombinant VEGF189, 5 mg/kg i.p. 3 times a week for 2 weeks, P<0.001); “did not inhibit” in the test on parental ES2 cells (s.c. ES2 tumors, treatment for one week); “did not inhibit” in the test on parental HCT116 cells (s.c. HCT116 tumors, treatment for one week). For the same substance, the “Levels of unbound bevacizumab in whole media compared with sEV-depleted media” value in test [1] (cancer cell-conditioned media incubated with bevacizumab) is listed as “almost identical”. The Unbound bevacizumab levels entry in test [1] (sEV-depleted media to which recombinant VEGF189 had been added) is listed as “decrease”. The “sEV-VEGF levels in plasma” value in the test with parental ES2 cells (ES2, estimated from difference between whole and sEV-depleted plasma, following treatment, P<0,01) is “increased”; in the test on parental HCT116 cells (HCT116, estimated from difference between whole and sEV-depleted plasma, following treatment, P<0.05), “increased”. For the same substance, the “non-sEV-VEGF levels in plasma” value with parental ES2 cells (ES2, sEV-depleted plasma, following treatment, P<0.05) is “decreased”; with parental HCT116 cells (HCT116, sEV-depleted plasma, following treatment, P<0.001), “decreased”. The Tube formation result with HUVEC (setting [2]) is on record as “not”; in the test on HUVEC (setting [3]), “blocked”. Further, the VEGFR2 phosphorylation entry in the test with VEGFR2 (setting [2]) was “not”; in the test on VEGFR2 (setting [3]) it was “blocked”; in the test on VEGFR2 (endothelial cells stimulated with sEV-depleted media), “completely blocked”; with VEGFR2 (endothelial cells stimulated with whole media), “only partially inhibited”.
